Data: US8921397B2, “Benzofurane-piperidine compounds” (Hoffmann-La Roche Inc., priority 2011, dated 2014)

How the values were obtained:
[1] = target: human 5-HT2A receptor (Homo sapiens (Human), UniProt P28223); test: Radioligand binding ([3H]-ketanserin) to human 5-HT2A receptor, HEK293 EBNA membranes; details: HEK293 EBNA cells expressing human 5-HT2A receptor
Method: The ability of the compounds to bind to the 5-HT2A, D3 and D2 receptors was determined using radioligand binding to cloned receptors selectively expressed in HEK-293 EBNA cells.
(§1) HEK293 EBNA cells were transiently transfected with expression plasmids encoding for the human D2 or D3 or for the human 5-HT2A receptor, respectively. The cells were harvested 48 h post-transfection, washed three times with cold PBS and stored at −80° C. prior to use. The pellet was suspended in cold 50 mM Tris-HCl buffer containing 10 mM EDTA (pH 7.4) and was homogenized with a Polytron (Kinematica AG, Basel, Switzerland) for 20-30 sec at 12.000 rpm. After centrifugation at 48.000×g for 30 min at 4° C., the pellet was resuspended in cold 10 mM Tris-HCl buffer containing 0.1 mM EDTA (pH 7.4), homogenized, and centrifuged as above. This pellet was further resuspended in a smaller volume of ice cold 10 mM Tris-HCl buffer containing 0.1 mM EDTA (pH 7.4) and homogenized with a Polytron for 20-30 sec at 12.000 rpm. The protein content of this homogenate was determined with the Bio-Rad (Bradford) Protein Assay (Biorad Laboratories GmbH, München, Germany) according to the instructions of the manufacturer using gamma globulin as the standard. This homogenate was stored at −80° C. in aliquots and thawed immediately prior to use.
(§2) Aliquots of membrane preparations were thawed at RT, resuspended in assay buffer (D2, D3: 50 mM Tris-HCl, 120 mM NaCl, 5 mM MgCl2, 1 mM EDTA, 5 mM KCl, 1.5 mM CaCl2, pH=7.4; 5-HT2A: 50 mM Tris-HCl, 10 mM MgCl2, 1 mM EGTA, pH=7.4), homogenized with a Polytron for 20-30 sec at 12.000 rpm and adjusted to a final concentration of approximately 7.5 μg protein/well (D2, D3) and 15 μg protein/well (5-HT2A), respectively.
(§3) The binding affinity (Ki) of the compounds was determined using radioligand binding.
(§4) Membranes were incubated in a total volume of 200 μl with a fixed concentration of radioligand (final concentration approximately 0.7 nM [^3H]-spiperone for D2, 0.5 nM [^3 H]-spiperone for D3, and 1.1 nM [^3H]-ketanserin for 5-HT2A) and ten concentrations of test compound in ranging between 10 μM-0.1 nM for 1 h at RT. At the end of the incubation, the reaction mixtures were filtered on to unifilter 96-well white microplates with bonded GF/C filters (Packard BioScience, Zürich, Switzerland; preincubated for 1 h in 0.1% polyethylenimine (PEI) in assay buffer) with a Filtermate 196 harvester (Packard BioScience) and washed 3 times with cold assay buffer. The nonspecific binding was determined with equally composed reaction mixtures in the presence of 10 μM unlabelled spiperone. Per well 45 μl of Microscint 40 (Perkin Elmer, Schwerzenbach, Switzerland) was added, plates for sealed, shaken for 20 min and counted for 3 min on a Topcount Microplate Scintillation Counter (Canberra Packard SA, Zürich, Switzerland) with quenching correction.
(§5) The CPM value for each duplicate of a concentration of competing compound was averaged (y1), then the % specific binding was calculated according to the equation (((y1−non-specific)/(total binding−non-specific))×100). Graphs were plotted with the % specific binding using XLfit, a curve-fitting program that iteratively plots the data using Levenberg-Marquardt algorithm. The single site competition analysis equation used was y=A+((B−A)/(1+((x/C)D))), where y is the % specific binding, A is the minimum y, B is the maximum y, C is the IC50, x is the log 10 of the concentration of the competing compound and D is the slope of the curve (the Hill Coefficient). From these curves the IC50 (inhibition concentration at which 50% specific binding of the radioligand was displaced) and Hill coefficient were determined. The affinity constant (Ki) was calculated using the Cheng-Prusoff equation Ki=(IC50/1+([L]/Kd), where [L] is the concentration of radioligand and Kd is the dissociation constant of the radioligand at the receptor as determined by the saturation isotherm.

[2] = target: human D3 receptor (Homo sapiens (Human), UniProt P35462); test: Radioligand binding ([3H]-spiperone) to human D3 receptor, HEK293 EBNA membranes; details: HEK293 EBNA cells expressing human D3 receptor
Method: as §1, §2, §3, §4, §5

[3] = target: human D2 receptor (Homo sapiens (Human), UniProt P14416); test: Radioligand binding ([3H]-spiperone) to human D2 receptor, HEK293 EBNA membranes; details: HEK293 EBNA cells expressing human D2 receptor
Method: as §1, §2, §3, §4, §5

Chain of human D3 receptor (P35462 whole entry): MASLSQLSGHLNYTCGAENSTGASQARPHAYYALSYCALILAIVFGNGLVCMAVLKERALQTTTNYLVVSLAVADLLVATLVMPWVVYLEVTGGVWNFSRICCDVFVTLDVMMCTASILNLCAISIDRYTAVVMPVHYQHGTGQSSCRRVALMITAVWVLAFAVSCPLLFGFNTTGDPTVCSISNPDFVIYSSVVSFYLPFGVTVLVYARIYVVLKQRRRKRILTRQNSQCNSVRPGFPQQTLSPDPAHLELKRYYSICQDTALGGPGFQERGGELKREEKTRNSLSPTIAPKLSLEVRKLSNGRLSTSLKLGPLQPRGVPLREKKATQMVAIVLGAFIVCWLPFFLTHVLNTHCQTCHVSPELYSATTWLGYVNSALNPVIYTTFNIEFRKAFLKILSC
Chain of human D2 receptor (P14416 whole entry): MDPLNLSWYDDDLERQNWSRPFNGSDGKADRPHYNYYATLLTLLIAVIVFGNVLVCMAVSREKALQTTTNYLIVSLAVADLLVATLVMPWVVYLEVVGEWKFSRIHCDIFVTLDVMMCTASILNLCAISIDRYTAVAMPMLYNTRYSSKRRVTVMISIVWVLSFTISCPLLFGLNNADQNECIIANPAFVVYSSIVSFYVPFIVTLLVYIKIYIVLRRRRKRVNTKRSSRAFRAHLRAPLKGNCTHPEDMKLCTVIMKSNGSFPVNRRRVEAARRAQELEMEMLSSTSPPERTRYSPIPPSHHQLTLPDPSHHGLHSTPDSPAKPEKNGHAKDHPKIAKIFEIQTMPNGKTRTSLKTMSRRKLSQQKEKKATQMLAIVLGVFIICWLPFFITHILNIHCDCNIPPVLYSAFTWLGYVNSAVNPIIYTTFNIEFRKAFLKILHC
Chain of human 5-HT2A receptor (P28223 whole entry): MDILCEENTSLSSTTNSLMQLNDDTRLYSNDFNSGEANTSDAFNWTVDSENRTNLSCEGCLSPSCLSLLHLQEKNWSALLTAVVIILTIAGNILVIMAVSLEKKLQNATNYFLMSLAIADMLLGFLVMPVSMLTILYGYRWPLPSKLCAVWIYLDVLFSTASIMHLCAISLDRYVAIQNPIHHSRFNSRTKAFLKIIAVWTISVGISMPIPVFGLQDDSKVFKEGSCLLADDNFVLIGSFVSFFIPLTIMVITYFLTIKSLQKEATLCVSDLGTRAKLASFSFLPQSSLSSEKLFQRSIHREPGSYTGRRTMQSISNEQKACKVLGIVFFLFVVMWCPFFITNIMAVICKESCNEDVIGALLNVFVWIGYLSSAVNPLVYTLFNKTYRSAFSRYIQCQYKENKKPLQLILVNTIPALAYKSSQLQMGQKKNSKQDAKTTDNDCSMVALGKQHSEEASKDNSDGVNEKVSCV

Which melting point does the source give for `Cc1cc(C(=O)N[C@H]2CC[C@H](CCN3CCC(c4coc5ccccc45)CC3)CC2)on1` [Example 41, 3-Methyl-isoxazole-5-carboxylic acid trans-{4-[2-(4-benzofuran-3-yl-piperidin-1-yl)-ethyl]-cyclohexyl}-amide] here?
Its melting point is 178 °C.

What about the Ki [1] of the same compound?
The Ki was 9.21 nM.

And the Ki [2]?
Its Ki is 4.23 nM.

What about the Ki [3] of the same compound?
The Ki was 36.4 nM.

With `Cc1nc(-c2ccc(C(=O)N[C@H]3CC[C@H](CCN4CCC(c5coc6ccccc56)CC4)CC3)cc2)no1` [Example 61, trans-N-{4-[2-(4-Benzofuran-3-yl-piperidin-1-yl)-ethyl]-cyclohexyl}-4-(5-methyl-[1,2,4]oxadiazol-3-yl)-benzamide] as the compound, how does the melting point read?
The melting point was 194 °C.

What about the Ki [1] of the same compound?
The Ki was 15.1 nM.

And the Ki [2]?
The Ki was 2.87 nM.

And the Ki [3]?
The Ki was 227 nM.

Which melting point does the source give for `CS(=O)(=O)N[C@H]1CC[C@H](CCN2CCC(c3coc4ccccc34)CC2)CC1` [Example 36, trans-N-{4-[2-(4-Benzofuran-3-yl-piperidin-1-yl)-ethyl]-cyclohexyl}-methanesulfonamide] here?
The melting point was 142 °C.

What about the Ki [1] of the same compound?
Its Ki is 5.43 nM.

And the Ki [2]?
Its Ki is 2.85 nM.

And the Ki [3]?
The Ki was 47.4 nM.

What does the source list for `O=C(N[C@H]1CC[C@H](CCN2CCC(c3coc4ccccc34)CC2)CC1)c1ccc(Cl)cc1Cl` [Example 87, trans-N-{4-[2-(4-Benzofuran-3-yl-piperidin-1-yl)-ethyl]-cyclohexyl}-2,4-dichloro-benzamide]?
melting point: 187 °C; Ki [1]: 12.3 nM; Ki [2]: 4.37 nM; Ki [3]: 38.2 nM

Which results are given for `CS(=O)(=O)CC(=O)N[C@H]1CC[C@H](CCN2CCC(c3coc4ccccc34)CC2)CC1` [Example 7, trans-N-{4-[2-(4-Benzofuran-3-yl-piperidin-1-yl)-ethyl]-cyclohexyl}-2-methanesulfonyl-acetamide]?
melting point: 187 °C; Ki [1]: 3.54 nM; Ki [2]: 1.45 nM; Ki [3]: 50.8 nM

Which melting point does the source give for `O=C(N[C@H]1CC[C@H](CCN2CCC(c3coc4ccccc34)CC2)CC1)C12CC3CC(CC(C3)C1)C2` [Example 78, Adamantane-1-carboxylic acid trans-{4-[2-(4-benzofuran-3-yl-piperidin-1-yl)-ethyl]-cyclohexyl}-amide] here?
The melting point was 200 °C.

And the Ki [1]?
Its Ki is 17.4 nM.

What about the Ki [2] of the same compound?
Its Ki is 12.7 nM.

What about the Ki [3] of the same compound?
The Ki was 129 nM.

For `O=C(N[C@H]1CC[C@H](CCN2CCC(c3coc4ccccc34)CC2)CC1)c1ccc(F)cc1` [Example 24, trans-N-{4-[2-(4-Benzofuran-3-yl-piperidin-1-yl)-ethyl]-cyclohexyl}-4-fluoro-benzamide], which melting point is on record?
Its melting point is 193 °C.

What about the Ki [1] of the same compound?
The Ki was 5.66 nM.

What about the Ki [2] of the same compound?
The Ki was 3.05 nM.

And the Ki [3]?
The Ki was 68.9 nM.

With `CC(C)(C)C(=O)N[C@H]1CC[C@H](CCN2CCC(c3coc4ccccc34)CC2)CC1` [Example 28, trans-N-{4-[2-(4-Benzofuran-3-yl-piperidin-1-yl)-ethyl]-cyclohexyl}-2,2-dimethyl-propionamide] as the compound, how does the melting point read?
Its melting point is 157 °C.

And the Ki [1]?
The Ki was 6.05 nM.

What about the Ki [2] of the same compound?
Its Ki is 12.7 nM.

And the Ki [3]?
Its Ki is 38 nM.

For `CC(C)(C)c1ccc(C(=O)N[C@H]2CC[C@H](CCN3CCC(c4coc5ccccc45)CC3)CC2)cc1` [Example 60, trans-N-{4-[2-(4-Benzofuran-3-yl-piperidin-1-yl)-ethyl]-cyclohexyl}-4-tert-butyl-benzamide], which melting point is on record?
Its melting point is 180 °C.

What about the Ki [1] of the same compound?
Its Ki is 3.77 nM.

What about the Ki [2] of the same compound?
Its Ki is 10.1 nM.

What about the Ki [3] of the same compound?
Its Ki is 1110 nM.

For `COC(CC(=O)N[C@H]1CC[C@H](CCN2CCC(c3coc4ccccc34)CC2)CC1)OC` [Example 52, trans-N-{4-[2-(4-Benzofuran-3-yl-piperidin-1-yl)-ethyl]-cyclohexyl}-3,3-dimethoxy-propionamide], which melting point is on record?
The melting point was 148 °C.

What about the Ki [1] of the same compound?
Its Ki is 5.94 nM.

What about the Ki [2] of the same compound?
The Ki was 1.46 nM.

And the Ki [3]?
The Ki was 48.9 nM.

For `O=C(N[C@H]1CC[C@H](CCN2CCC(c3coc4ccccc34)CC2)CC1)c1ccc(-c2ccccc2)cc1` [Example 63, Biphenyl-4-carboxylic acid trans-{4-[2-(4-benzofuran-3-yl-piperidin-1-yl)-ethyl]-cyclohexyl}-amide], which melting point is on record?
The melting point was 235 °C.

And the Ki [1]?
The Ki was 5.21 nM.

And the Ki [2]?
Its Ki is 3.37 nM.

And the Ki [3]?
Its Ki is 22.1 nM.

Which results are given for `CC(C)(O)CC(=O)N[C@H]1CC[C@H](CCN2CCC(c3coc4ccccc34)CC2)CC1` [Example 34, trans-N-{4-[2-(4-Benzofuran-3-yl-piperidin-1-yl)-ethyl]-cyclohexyl}-3-hydroxy-3-methyl-butyramide]?
melting point: 150 °C; Ki [1]: 5.1 nM; Ki [2]: 2.25 nM; Ki [3]: 41.3 nM

For `Cc1ccc(S(=O)(=O)N[C@H]2CC[C@H](CCN3CCC(c4coc5ccccc45)CC3)CC2)cc1` [Example 38, trans-N-{4-[2-(4-Benzofuran-3-yl-piperidin-1-yl)-ethyl]-cyclohexyl}-4-methyl-benzenesulfonamide], which melting point is on record?
Its melting point is 149 °C.

What about the Ki [1] of the same compound?
Its Ki is 41.5 nM.

And the Ki [2]?
Its Ki is 6.24 nM.

And the Ki [3]?
Its Ki is 58.6 nM.

Which results are given for `O=C(CC1CCC1)N[C@H]1CC[C@H](CCN2CCC(c3coc4ccccc34)CC2)CC1` [Example 48, trans-N-{4-[2-(4-Benzofuran-3-yl-piperidin-1-yl)-ethyl]-cyclohexyl}-2-cyclobutyl-acetamide]?
melting point: 173 °C; Ki [1]: 4.94 nM; Ki [2]: 2.05 nM; Ki [3]: 58.2 nM

With `O=C(CC(F)(F)F)N[C@H]1CC[C@H](CCN2CCC(c3coc4ccccc34)CC2)CC1` [Example 12, trans-N-{4-[2-(4-Benzofuran-3-yl-piperidin-1-yl)-ethyl]-cyclohexyl}-3,3,3-trifluoro-propionamide] as the compound, how does the melting point read?
Its melting point is 182 °C.

What about the Ki [1] of the same compound?
The Ki was 8.06 nM.

What about the Ki [2] of the same compound?
Its Ki is 0.99 nM.

What about the Ki [3] of the same compound?
Its Ki is 42.7 nM.

With `O=C(Cc1ccc2c(c1)OCO2)N[C@H]1CC[C@H](CCN2CCC(c3coc4ccccc34)CC2)CC1` [Example 74, trans-2-Benzo[1,3]dioxol-5-yl-N-{4-[2-(4-benzofuran-3-yl-piperidin-1-yl)-ethyl]-cyclohexyl}-acetamide] as the compound, how does the melting point read?
The melting point was 177 °C.

And the Ki [1]?
The Ki was 11.5 nM.

What about the Ki [2] of the same compound?
Its Ki is 1.66 nM.

And the Ki [3]?
The Ki was 92.5 nM.

Which results are given for `CC(C)CC(=O)N[C@H]1CC[C@H](CCN2CCC(c3coc4ccccc34)CC2)CC1` [Example 15, trans-N-{4-[2-(4-Benzofuran-3-yl-piperidin-1-yl)-ethyl]-cyclohexyl}-3-methyl-butyramide]?
melting point: 182 °C; Ki [1]: 8.65 nM; Ki [2]: 1.94 nM; Ki [3]: 43.5 nM

With `CC(C)C(=O)N[C@H]1CC[C@H](CCN2CCC(c3coc4ccccc34)CC2)CC1` [Example 14, trans-N-{4-[2-(4-Benzofuran-3-yl-piperidin-1-yl)-ethyl]-cyclohexyl}-isobutyramide] as the compound, how does the melting point read?
Its melting point is 173 °C.

What about the Ki [1] of the same compound?
Its Ki is 5.75 nM.

What about the Ki [2] of the same compound?
The Ki was 1.78 nM.

What about the Ki [3] of the same compound?
The Ki was 39.5 nM.

Which results are given for `O=C(Cc1noc2ccccc12)N[C@H]1CC[C@H](CCN2CCC(c3coc4ccccc34)CC2)CC1` [Example 85, trans-2-Benzo[d]isoxazol-3-yl-N-{4-[2-(4-benzofuran-3-yl-piperidin-1-yl)-ethyl]-cyclohexyl}-acetamide]?
melting point: 175 °C; Ki [1]: 8.22 nM; Ki [2]: 145 nM; Ki [3]: 245 nM

For `CCC(=O)N[C@H]1CC[C@H](CCN2CCC(c3coc4ccccc34)CC2)CC1` [Example 5, trans-N-{4-[2-(4-Benzofuran-3-yl-piperidin-1-yl)-ethyl]-cyclohexyl}-propionamide], which melting point is on record?
The melting point was 162 °C.

What about the Ki [1] of the same compound?
Its Ki is 4.52 nM.

And the Ki [2]?
Its Ki is 1.23 nM.

And the Ki [3]?
The Ki was 48.1 nM.
